Assay results: US8362067B2, “3-aminoalkyl-1,3-dihydro-2H-indol-2-one derivatives, preparation thereof and therapeutic use thereof” (Sanofi, priority 2008, dated 2013)
Counter-ions that a name gives are not always drawn.

| Structure (SMILES) | melting point [°C] |
| --- | --- |
| CCOc1ccc(S(=O)(=O)N2C(=O)C(CCCN3CCC(O)CC3)(c3ccccc3F)c3cc(Cl)c(OC)cc32)cc1OC (centres unmarked) | 102 |
| CCOc1ccc(S(=O)(=O)N2C(=O)C(CCCN3CCOCC3)(c3ccccc3F)c3cc(Cl)c(OC)cc32)cc1OC (centres unmarked) | 153 |
| COc1cc2c(cc1F)C(CCCN1CCN(C)CC1)(c1ccccc1F)C(=O)N2S(=O)(=O)c1ccc(OC(C)C)cc1 (centres unmarked) | 72 |
| COc1cc2c(cc1F)C(CCCN1CCN(C)CC1)(c1ccccc1F)C(=O)N2S(=O)(=O)c1ccc(OC(C)C)c(F)c1 (centres unmarked) | 72 |
| COc1ccc(S(=O)(=O)N2C(=O)C(CCCN3CCN(C)CC3)(c3ccccc3F)c3cc(OC)c(OC)cc32)cc1C (centres unmarked) | 78 |
| COC(=O)c1ccc(F)c(C2(CCCN3CCN(C)CC3)C(=O)N(S(=O)(=O)c3ccc(OC(C)C)cc3)c3cc(OC)c(Cl)cc32)c1 (centres unmarked) | 100 |
| CCN(CC)C(=O)Nc1ccc(S(=O)(=O)N2C(=O)C(CCCN(C)C)(c3ccccc3F)c3cc(C)c(OC)cc32)cc1C (centres unmarked) | 98 |
| CCN(CC)C(=O)Nc1ccc(S(=O)(=O)N2C(=O)C(CCCN(C)C)(c3ccccc3F)c3cc(C)c(OC)cc32)cc1F (centres unmarked) | 82 |
| COc1cc2c(cc1Cl)C(CCCN1CCN(C)CC1)(c1ccccc1F)C(=O)N2S(=O)(=O)c1ccc(OC)c(OC)c1 (centres unmarked) | 90 |
| COc1ccc(S(=O)(=O)N2C(=O)C(CCCN3CCCCC3)(c3ccccc3F)c3cc(Cl)c(OC)cc32)c(OC)c1 (centres unmarked) | 105 |
| COc1cc2c(cc1Cl)C(CCCN1CCCN(C)CC1)(c1ccccc1F)C(=O)N2S(=O)(=O)c1ccc(OC(C)C)cc1 (centres unmarked) (as salt: HCl) | 202 |
| COc1cc2c(cc1Cl)C(CCCCCN(C)C)(c1ccccc1F)C(=O)N2S(=O)(=O)c1ccc(OC(C)C)cc1 (centres unmarked) (as salt: HCl) | 125 |
| COc1cc2c(cc1Cl)C(CCCCCN1CCCCC1)(c1ccccc1F)C(=O)N2S(=O)(=O)c1ccc(OC(C)C)cc1 (centres unmarked) (as salt: HCl) | 203 |
| COc1cc2c(cc1Cl)C(CCCN1CC[C@H](N)C1)(c1ccccc1F)C(=O)N2S(=O)(=O)c1ccc(OC(C)C)cc1 (stereo partly drawn) (as salt: HCl) [Compound No. 5, 3-{3-[(3S)-3-aminopyrrolidin-1-yl]propyl}-5-chloro-3-(2-fluorophenyl)-1-[(4-isopropoxyphenyl)sulfonyl]-6-methoxy-1,3-dihydro-2H-indol-2-one] | 206 |
| CCOc1ccc(S(=O)(=O)N2C(=O)C(CCCN3CC[C@@H](N)C3)(c3ccccc3F)c3cc(Cl)c(OC)cc32)cc1OC (stereo partly drawn) (as salt: HCl) [Compound No. 6, 3-{3-[(3R)-3-aminopyrrolidin-1-yl]propyl}-5-chloro-1-[(4-ethoxy-3-methoxy-phenyl)sulfonyl]-3-(2-fluorophenyl)-6-methoxy-1,3-dihydro-2H-indol-2-one] | 210 |
| CCOc1ccc(S(=O)(=O)N2C(=O)C(CCCN3CC[C@H](N)C3)(c3ccccc3F)c3cc(Cl)c(OC)cc32)cc1OC (stereo partly drawn) (as salt: HCl) [Compound No. 7, 3-{3-[(3S)-3-aminopyrrolidin-1-yl]propyl}-5-chloro-1-[(4-ethoxy-3-methoxy-phenyl)sulfonyl]-3-(2-fluorophenyl)-6-methoxy-1,3-dihydro-2H-indol-2-one] | 238 |
| COc1cccc(S(=O)(=O)N2C(=O)C(CCCN3CCN(C)CC3)(c3ccccc3F)c3cc(Cl)c(OC)cc32)c1 (centres unmarked) (as salt: HCl) [Compound No. 38] | 147 |
| COc1ccc(S(=O)(=O)N2C(=O)C(CCCN3CCNCC3)(c3ccccc3F)c3cc(Cl)c(OC)cc32)c(OC)c1 (centres unmarked) (as salt: HCl) [compound 16, 5-chloro-1-[(2,4-dimethoxyphenyl)sulfonyl]-3-(2-fluorophenyl)-6-methoxy-3-(3-(piperazin-1-yl)propyl)-1,3-dihydro-2H-indol-2-one] | 243 |
| CCOc1ccc(S(=O)(=O)N2C(=O)C(CCCN3CCNCC3)(c3ccccc3F)c3cc(Cl)c(OC)cc32)cc1OC (centres unmarked) (as salt: HCl) [compound 18, 5-chloro-1-[(4-ethoxy-3-methoxyphenyl)sulfonyl]-3-(2-fluorophenyl)-6-methoxy-3-(3-(piperazin-1-yl)propyl)-1,3-dihydro-2H-indol-2-one] | 220 |
| COc1cc2c(cc1Cl)C(CCCN1CCNCC1)(c1ccccc1F)C(=O)N2S(=O)(=O)c1ccc(C)c(C)c1 (centres unmarked) (as salt: HCl) [compound 20, 5-chloro-1-[(3,4-dimethylphenyl)sulfonyl]-3-(2-fluorophenyl)-6-methoxy-3-(3-(piperazin-1-yl)propyl)-1,3-dihydro-2H-indol-2-one] | 192 |
| CCOc1ccc(S(=O)(=O)N2C(=O)C(CCCN3CCNCC3)(c3ccccc3F)c3cc(Cl)c(OC)cc32)cc1 (centres unmarked) (as salt: HCl) [compound 22, 5-chloro-1-[(4-ethoxyphenyl)sulfonyl]-3-(2-fluorophenyl)-6-methoxy-3-(3-(piperazin-1-yl)propyl)-1,3-dihydro-2H-indol-2-one] | 213 |
| CCOc1ccc(S(=O)(=O)N2C(=O)C(CCCN3CCNCC3)(c3ccccc3F)c3cc(Cl)c(OC)cc32)cc1C (centres unmarked) (as salt: HCl) [compound 23, 5-chloro-1-[(4-ethoxy-3-methylphenyl)sulfonyl]-3-(2-fluorophenyl)-6-methoxy-3-(3-(piperazin-1-yl)propyl)-1,3-dihydro-2H-indol-2-one] | 226 |

Results, then the compound that gave them:

| melting point [°C] | Structure (SMILES) |
| --- | --- |
| 70 | COc1cc2c(cc1C)C(CCCN1CCN(C)CC1)(c1ccccc1F)C(=O)N2S(=O)(=O)c1ccc(OC(C)C)cc1 (centres unmarked) |
| 123 | COc1ccc(S(=O)(=O)N2C(=O)C(CCCN3CCN(C)CC3)(c3ccccc3F)c3cc(Cl)c(OC)cc32)c(OC)c1 (centres unmarked) |
| 74 | COc1cc2c(cc1OC)C(CCCN1CCN(C)CC1)(c1ccccc1F)C(=O)N2S(=O)(=O)c1ccc(OC(C)C)c(F)c1 (centres unmarked) |
| 97 | COc1cc2c(cc1Cl)C(CCCN1CCN(C)CC1)(c1cc(CO)ccc1F)C(=O)N2S(=O)(=O)c1ccc(OC(C)C)cc1 (centres unmarked) |
| 169 | COc1cc2c(cc1Cl)C(CCCN1CCN(C)CC1)(c1ccccc1F)C(=O)N2S(=O)(=O)c1ccc(O)cc1 (centres unmarked) |
| 164 | COc1cc2c(cc1Cl)C(CCCN1CCN(C)CC1)(c1ccccc1F)C(=O)N2S(=O)(=O)c1ccc(OC(F)(F)C(F)F)cc1.Cl (centres unmarked) |
| 156 | CCCCOc1ccc(S(=O)(=O)N2C(=O)C(CCCN3CCN(C)CC3)(c3ccccc3F)c3cc(Cl)c(OC)cc32)cc1 (centres unmarked) (as salt: HCl) |
| 292 | COc1cc2c(cc1Cl)C(CCCN1CCNCC1)(c1ccccc1F)C(=O)N2S(=O)(=O)c1ccc(O)cc1 (centres unmarked) (as salt: HCl) [Compound No. 46] |
| 190 | COc1cc2c(cc1Cl)C(CCCN1CCNCC1)(c1ccccc1F)C(=O)N2S(=O)(=O)c1ccc(OC)c(OC)c1 (centres unmarked) (as salt: HCl) [compound 19, 5-chloro-1-[(3,4-dimethoxyphenyl)sulfonyl]-3-(2-fluorophenyl)-6-methoxy-3-(3-(piperazin-1-yl)propyl)-1,3-dihydro-2H-indol-2-one] |
| 234 | COc1ccc(S(=O)(=O)N2C(=O)C(CCCN3CCNCC3)(c3ccccc3F)c3cc(Cl)c(OC)cc32)cc1C (centres unmarked) (as salt: HCl) [compound 21, 5-chloro-3-(2-fluorophenyl)-6-methoxy-1-[(4-methoxy-3-methylphenyl)sulfonyl]-3-(3-(piperazin-1-yl)propyl)-1,3-dihydro-2H-indol-2-one] |
